Assay results from the supplement of paper PMC10307832.

What was measured:
Experiment in all cases: relative viability (nuclei count vs DMSO), 5 days (fraction); higher = more cells survive
NCI-H1650 = system: NCI-H1650
How it was run: (§1)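 Dosing by pin tool came one day after lung cancer cell lines were seeded in 1536-well plates, using either one drug or a fixed anchor-drug dose plus five library-drug doses (not always all listed) in √10 steps. After 5 days, nuclei were counted on 4× images. Relative viability is treated-well nuclei count divided by vehicle-well nuclei count, and values are medians of duplicate plates.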

HCC-44 = system: HCC-44
How it was run: as §1

NCI-H460 = system: NCI-H460
How it was run: as §1

LU99A = system: LU99A
How it was run: as §1

LCLC-97TM1 = system: LCLC-97TM1
How it was run: as §1

201T = system: 201T
How it was run: as §1

COR-L23 = system: COR-L23
How it was run: as §1

SW 1573 = system: SW 1573
How it was run: as §1

NCI-H727 = system: NCI-H727
How it was run: as §1

H3255 = system: H3255
How it was run: as §1

NCI-H596 = system: NCI-H596
How it was run: as §1

LC-2-ad = system: LC-2-ad
How it was run: as §1

LCLC-103H = system: LCLC-103H
How it was run: as §1

NCI-H1563 = system: NCI-H1563
How it was run: as §1

A-427 = system: A-427
How it was run: as §1

NCI-H23 = system: NCI-H23
How it was run: as §1

NCI-H2347 = system: NCI-H2347
How it was run: as §1

PC-14 = system: PC-14
How it was run: as §1

NCI-H2228 = system: NCI-H2228
How it was run: as §1

## COc1cc2nccc(Oc3ccc(NC(=O)Nc4cc(C)on4)c(Cl)c3)c2cc1OC [Tivozanib] + CC(C)C[C@H](NC(=O)[C@H](Cc1ccccc1)NC(=O)c1cnccn1)B(O)O [Bortezomib] (partner 0.002 µM)
NCI-H1650; first compound 0.005 µM
  relative viability: 0.195
NCI-H1650; first compound 0.01581 µM
  relative viability: 0.21
NCI-H1650; first compound 0.05 µM
  relative viability: 0.209
NCI-H1650; first compound 0.1581 µM
  relative viability: 0.264
NCI-H1650; first compound 0.5 µM
  relative viability: 0.196
HCC-44; first compound 0.005 µM
  relative viability: 0.895
HCC-44; first compound 0.01581 µM
  relative viability: 0.809
HCC-44; first compound 0.05 µM
  relative viability: 0.92
HCC-44; first compound 0.1581 µM
  relative viability: 0.864
HCC-44; first compound 0.5 µM
  relative viability: 0.833
NCI-H460; first compound 0.005 µM
  relative viability: 1.13
NCI-H460; first compound 0.01581 µM
  relative viability: 1.04
NCI-H460; first compound 0.05 µM
  relative viability: 1
NCI-H460; first compound 0.1581 µM
  relative viability: 1.12
NCI-H460; first compound 0.5 µM
  relative viability: 1.03
LU99A; first compound 0.005 µM
  relative viability: 1.15
LU99A; first compound 0.01581 µM
  relative viability: 1.07
LU99A; first compound 0.05 µM
  relative viability: 1.29
LU99A; first compound 0.5 µM
  relative viability: 1.06
LCLC-97TM1; first compound 0.005 µM
  relative viability: 0.533
LCLC-97TM1; first compound 0.01581 µM
  relative viability: 0.584
LCLC-97TM1; first compound 0.05 µM
  relative viability: 0.913
LCLC-97TM1; first compound 0.1581 µM
  relative viability: 0.603
LCLC-97TM1; first compound 0.5 µM
  relative viability: 1
201T; first compound 0.005 µM
  relative viability: 1.11
201T; first compound 0.01581 µM
  relative viability: 1.08
201T; first compound 0.05 µM
  relative viability: 1.06
201T; first compound 0.1581 µM
  relative viability: 1.07
201T; first compound 0.5 µM
  relative viability: 1.11
COR-L23; first compound 0.005 µM
  relative viability: 0.88
COR-L23; first compound 0.01581 µM
  relative viability: 0.931
COR-L23; first compound 0.05 µM
  relative viability: 1.13
COR-L23; first compound 0.1581 µM
  relative viability: 1.01
COR-L23; first compound 0.5 µM
  relative viability: 0.869
SW 1573; first compound 0.005 µM
  relative viability: 1.02
SW 1573; first compound 0.01581 µM
  relative viability: 1.01
SW 1573; first compound 0.05 µM
  relative viability: 0.936
SW 1573; first compound 0.1581 µM
  relative viability: 0.772
SW 1573; first compound 0.5 µM
  relative viability: 0.831
NCI-H727; first compound 0.005 µM
  relative viability: 0.701
NCI-H727; first compound 0.01581 µM
  relative viability: 0.818
NCI-H727; first compound 0.05 µM
  relative viability: 0.772
NCI-H727; first compound 0.5 µM
  relative viability: 0.873
H3255; first compound 0.005 µM
  relative viability: 0.739
H3255; first compound 0.01581 µM
  relative viability: 0.823
H3255; first compound 0.05 µM
  relative viability: 0.795
H3255; first compound 0.1581 µM
  relative viability: 0.582
H3255; first compound 0.5 µM
  relative viability: 0.697
NCI-H596; first compound 0.005 µM
  relative viability: 1.03
NCI-H596; first compound 0.01581 µM
  relative viability: 0.887
NCI-H596; first compound 0.05 µM
  relative viability: 0.918
NCI-H596; first compound 0.1581 µM
  relative viability: 0.993
NCI-H596; first compound 0.5 µM
  relative viability: 1.08
LC-2-ad; first compound 0.005 µM
  relative viability: 0.951
LC-2-ad; first compound 0.01581 µM
  relative viability: 1.04
LC-2-ad; first compound 0.05 µM
  relative viability: 0.971
LC-2-ad; first compound 0.1581 µM
  relative viability: 0.867
LC-2-ad; first compound 0.5 µM
  relative viability: 0.843
LCLC-103H; first compound 0.005 µM
  relative viability: 0.964
LCLC-103H; first compound 0.01581 µM
  relative viability: 1.01
LCLC-103H; first compound 0.05 µM
  relative viability: 1.21
LCLC-103H; first compound 0.1581 µM
  relative viability: 1.04
LCLC-103H; first compound 0.5 µM
  relative viability: 0.967
NCI-H1563; first compound 0.005 µM
  relative viability: 0.766
NCI-H1563; first compound 0.01581 µM
  relative viability: 0.964
NCI-H1563; first compound 0.05 µM
  relative viability: 0.896
NCI-H1563; first compound 0.1581 µM
  relative viability: 0.776
NCI-H1563; first compound 0.5 µM
  relative viability: 0.829
A-427; first compound 0.005 µM
  relative viability: 0.988
A-427; first compound 0.01581 µM
  relative viability: 1.03
A-427; first compound 0.05 µM
  relative viability: 0.962
A-427; first compound 0.1581 µM
  relative viability: 0.893
A-427; first compound 0.5 µM
  relative viability: 0.932
NCI-H23; first compound 0.005 µM
  relative viability: 0.946
NCI-H23; first compound 0.01581 µM
  relative viability: 0.975
NCI-H23; first compound 0.05 µM
  relative viability: 1.1
NCI-H23; first compound 0.1581 µM
  relative viability: 0.785
NCI-H23; first compound 0.5 µM
  relative viability: 0.839
NCI-H2347; first compound 0.005 µM
  relative viability: 0.875
NCI-H2347; first compound 0.01581 µM
  relative viability: 0.818
NCI-H2347; first compound 0.05 µM
  relative viability: 1.18
NCI-H2347; first compound 0.5 µM
  relative viability: 0.986
PC-14; first compound 0.005 µM
  relative viability: 0.821
PC-14; first compound 0.01581 µM
  relative viability: 0.847
PC-14; first compound 0.05 µM
  relative viability: 0.99
PC-14; first compound 0.1581 µM
  relative viability: 0.811
PC-14; first compound 0.5 µM
  relative viability: 0.812
NCI-H2228; first compound 0.005 µM
  relative viability: 0.86
NCI-H2228; first compound 0.01581 µM
  relative viability: 0.859
NCI-H2228; first compound 0.05 µM
  relative viability: 1.02
NCI-H2228; first compound 0.1581 µM
  relative viability: 0.887
NCI-H2228; first compound 0.5 µM
  relative viability: 0.972
